From patent publication US9993494B2, “Compositions and methods for treating fibrotic disease” (eFFECTOR Therapeutics, Inc., priority 2014, dated 2018)

System: normal human lung fibroblasts
Test: Ribosomal profiling: translational efficiency in TGFβ-treated fibroblasts
Format: cell-based
Conditions: TGFβ-treated fibroblasts
Outline: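 Genome-wide RPF and total RNA libraries (ARTseq, RNA-Seq) were made from lysates of cycloheximide-treated, PBS-washed cells. After trimming and human-genome mapping, per-gene coding-region counts were compared between RPF and RNA for translational efficiency. Genes scoring low in either fraction were dropped.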

`CC(C=CC(=O)NO)=CC(C)C(=O)c1ccc(N(C)C)cc1` (stereo not drawn) [TSA, 7-[4-(dimethylamino)phenyl]-N-hydroxy-4,6-dimethyl-7-oxohepta-2,4-dienamide] was tested, and the “renormalizing the translational profile of RPL9” value (ENSG00000163682) was “− (− = <0.9)”, the “renormalizing the translational profile of RHOBTB3” value (ENSG00000164292) was “− (− = <0.9)” and the “renormalizing the translational profile of RPL36AL” value (ENSG00000165502) was “− (− = <0.9)”. For the same molecule, the “renormalizing the translational profile of RPL27A” value (ENSG00000166441) was “− (− = <0.9)”, the “renormalizing the translational profile of RP11-382A20.3.1” value (ENSG00000166503) was “− (− = <0.9)” and the “renormalizing the translational profile of ANKDD1A” value (ENSG00000166839) was “− (− = <0.9)”. For the same molecule, the “renormalizing the translational profile of RPL13” value (ENSG00000167526) was “− (− = <0.9)”, the “renormalizing the translational profile of EEF2” value (ENSG00000167658) was “+ (+ = 0.9 to 1.5)” and the “renormalizing the translational profile of CA5B” value (ENSG00000169239) was “+ (+ = 0.9 to 1.5)”. The “renormalizing the translational profile of KIAA1024” value (ENSG00000169330) was “− (− = <0.9)”, the “renormalizing the translational profile of MURC” value (ENSG00000170681) was “+ (+ = 0.9 to 1.5)” and the “renormalizing the translational profile of HTRA3” value (ENSG00000170801) was “− (− = <0.9)”. For the same molecule, the “renormalizing the translational profile of PDE7B” value (ENSG00000171408) was “++ (++ = 1.5 to 2.0)”, the “renormalizing the translational profile of LPAR3” value (ENSG00000171517) was “++ (++ = 1.5 to 2.0)” and the “renormalizing the translational profile of CTPS” value (ENSG00000171793) was “− (− = <0.9)”. For the same molecule, the “renormalizing the translational profile of QARS” value (ENSG00000172053) was “− (− = <0.9)”, the “renormalizing the translational profile of RPL38” value (ENSG00000172809) was “− (− = <0.9)” and the “renormalizing the translational profile of MRPL45” value (ENSG00000174100) was “− (− = <0.9)”. For the same molecule, the “renormalizing the translational profile of RPL4” value (ENSG00000174444) was “− (− = <0.9)”, the “renormalizing the translational profile of RPL15” value (ENSG00000174748) was “− (− = <0.9)” and the “renormalizing the translational profile of DES” value (ENSG00000175084) was “− (− = <0.9)”. The “renormalizing the translational profile of EIF3F” value (ENSG00000175390) was “− (− = <0.9)”, the “renormalizing the translational profile of CLCF1” value (ENSG00000175505) was “+ (+ = 0.9 to 1.5)” and the “renormalizing the translational profile of AMIGO3” value (ENSG00000176020) was “+ (+ = 0.9 to 1.5)”. For the same molecule, the “renormalizing the translational profile of C14orf49” value (ENSG00000176438) was “− (− = <0.9)”, the “renormalizing the translational profile of RPLP2” value (ENSG00000177600) was “− (− = <0.9)” and the “renormalizing the translational profile of IMPDH2” value (ENSG00000178035) was “− (− = <0.9)”. For the same molecule, the “renormalizing the translational profile of DNAJC22” value (ENSG00000178401) was “− (− = <0.9)”, the “renormalizing the translational profile of RPL35A” value (ENSG00000182899) was “− (− = <0.9)” and the “renormalizing the translational profile of LENG9” value (ENSG00000182909) was “− (− = <0.9)”. For the same molecule, the “renormalizing the translational profile of C22orf32” value (ENSG00000183172) was “− (− = <0.9)”, the “renormalizing the translational profile of NPW” value (ENSG00000183971) was “− (− = <0.9)” and the “renormalizing the translational profile of PDE4B” value (ENSG00000184588) was “+ (+ = 0.9 to 1.5)”. The “renormalizing the translational profile of ROBO2” value (ENSG00000185008) was “− (− = <0.9)”, the “renormalizing the translational profile of PTCH1” value (ENSG00000185920) was “− (− = <0.9)” and the “renormalizing the translational profile of POLR1D” value (ENSG00000186184) was “− (− = <0.9)”. The “renormalizing the translational profile of DYNC2H1” value (ENSG00000187240) was “− (− = <0.9)”, the “renormalizing the translational profile of RPL14” value (ENSG00000188846) was “+ (+ = 0.9 to 1.5)” and the “renormalizing the translational profile of LRRK2” value (ENSG00000188906) was “− (− = <0.9)”. For the same molecule, the “renormalizing the translational profile of NACA” value (ENSG00000196531) was “− (− = <0.9)”, the “renormalizing the translational profile of LAMB3” value (ENSG00000196878) was “− (− = <0.9)” and the “renormalizing the translational profile of PCBP2” value (ENSG00000197111) was “+ (+ = 0.9 to 1.5)”. For the same molecule, the “renormalizing the translational profile of MAP3K5” value (ENSG00000197442) was “+ (+ = 0.9 to 1.5)”, the “renormalizing the translational profile of RPL37A” value (ENSG00000197756) was “− (− = <0.9)” and the “renormalizing the translational profile of RPL12” value (ENSG00000197958) was “− (− = <0.9)”. For the same molecule, the “renormalizing the translational profile of LPAR1” value (ENSG00000198121) was “− (− = <0.9)”, the “renormalizing the translational profile of RPL23A” value (ENSG00000198242) was “− (− = <0.9)” and the “renormalizing the translational profile of PLN” value (ENSG00000198523) was “− (− = <0.9)”. The “renormalizing the translational profile of RPL10A” value (ENSG00000198755) was “− (− = <0.9)”, the “renormalizing the translational profile of CES1” value (ENSG00000198848) was “− (− = <0.9)” and the “renormalizing the translational profile of RPL39” value (ENSG00000198918) was “− (− = <0.9)”. The “renormalizing the translational profile of CARD16” value (ENSG00000204397) was “− (− = <0.9)”, the “renormalizing the translational profile of MICA” value (ENSG00000204520) was “− (− = <0.9)” and the “renormalizing the translational profile of GNB2L1” value (ENSG00000204628) was “− (− = <0.9)”. The “renormalizing the translational profile of RPL17” value (ENSG00000215472) was “− (− = <0.9)”, the “renormalizing the translational profile of RPL41” value (ENSG00000229117) was “− (− = <0.9)” and the “renormalizing the translational profile of ARPC1A” value (ENSG00000241685) was “+ (+ = 0.9 to 1.5)”. The “renormalizing the translational profile of CHCHD10” value (ENSG00000250479) was “− (− = <0.9)”, the “renormalizing the translational profile of EEF1G” value (ENSG00000254772) was “− (− = <0.9)” and the “number of genes whose translational efficiency was uniquely modulated by the compound” value (duplicate ribosomal profiles) was 13 genes. The “effect in renormalizing the translational profile of the gene” value (gene RPS2 (ENSG00000140988)) was “− (− = <0.9)”, the “effect in renormalizing the translational profile of the gene” value (gene RPS3 (ENSG00000149273)) was “− (− = <0.9)” and the “effect in renormalizing the translational profile of the gene” value (gene RPS3A (ENSG00000145425)) was “− (− = <0.9)”. The “effect in renormalizing the translational profile of the gene” value (gene RPS4X (ENSG00000198034)) was “− (− = <0.9)”, the “effect in renormalizing the translational profile of the gene” value (gene RPS4Y1 (ENSG00000129824)) was “− (− = <0.9)” and the “effect in renormalizing the translational profile of the gene” value (gene RPS5 (ENSG00000083845)) was “− (− = <0.9)”.
